“Also recorded” adds a separate entry of the source.
Tests used:
[1] = tested on: P. falciparum clone D-6 (Sierra Leone); assay type: cell-based, Plasmodium falciparum; details: D-6 clone (resistant to mefloquine)
Protocol: (§1) In vitro activity against P. falciparum was determined using a modification of the semiautomated microdilution technique of Desjardins et al. (1979) and Milhous et al. (1985). Two P. falciparum malaria parasite clones, designated as Sierra Leone (D-6) and Indochina (W-2), are used in susceptibility testing. The former is resistant to mefloquine, and the latter to CQ, pyrimethamine, sulfadoxine, and quinine. Test compounds are dissolved in dimethylsulfoxide, and solutions serially diluted with culture media. Erythrocytes with 0.25 to 0.5% parasitemia are added to each well of a 96-well microdilution plate to give a final hematocrit of 1.5%. […] Results are reported as […] (ng/mL) values. For a complete description of this assay, see Milhous et al. (1985) and Lin et al. (1987).

[2] = tested on: P. falciparum clone W-2 (Indochina); assay type: cell-based, Plasmodium falciparum
Protocol: as §1

P. falciparum = assay: In vitro activity against P. falciparum (both clones, D-6 and W-2); assay type: cell-based, Plasmodium falciparum; details: for Resistance Index: IC50 (W2)/IC50 (D6) ratio; for IC50: Plasmodium falciparum, clone not specified
Protocol: as §1

[3] = tested on: P. berghei (strain KBG 173); assay: In vivo activity against P. berghei in mice, single subcutaneous dose 3 days after infection; set-up: species or system Plasmodium berghei; mice; details: for P. berghei T-C: single dose 3 days post infection
Protocol: In vivo activity against P. berghei was obtained against a drug-sensitive strain of P. berghei (strain KBG 173) (Osdene et al., 1967). Each test compound is administered subcutaneous to five male mice per dilution in a single subcutaneous dose 3 days after infection. Results are expressed in T-C values which indicate the mean survival time of the treated mice beyond that of the control animals; untreated mice survive on average 6.2 days. Compounds are classified as active (A) when the mean survival time of the treated mice is twice that of the controls (>6.2 days), and curative (C) when one or more test animals live 60 days post-infection. Deaths from 0-2 days post-treatment are attributed to toxicity (T).

CQ-resistant malaria = details: cited from earlier work; for duration of action / toxicity: compared to CQ, Li et al., 1981a, Lin et al., 1982; for activity against malaria / CQ-resistant malaria (in words): literature

| Structure (SMILES) | P. falciparum IC50 (nM) D-6 [1] [nM] | P. falciparum IC50 (nM) W-2 [2] [nM] | Resistance Index (P. falciparum) | P. berghei T-C ([3]; 40 mg/kg s.c., n = 5) [days] | P. berghei T-C ([3]; 160 mg/kg s.c., n = 5) [days] | activity against malaria / CQ-resistant malaria (in words) (CQ-resistant malaria) | further results |
| --- | --- | --- | --- | --- | --- | --- | --- |
| Clc1ccc2c(NCCCCCCCNc3ccnc4cc(Cl)ccc34)ccnc2c1 [Compound 9, N^1, N^7 -Bis(7-chloroquinolin-4-Yl)heptane-1,7-diamine] | 1.9 | 4.3 | 2.3 | 2.6 | 7.2 | – | IC50 (P. falciparum): < 6 nM |
| Clc1ccc2c(NCCCCCCCCNc3ccnc4cc(Cl)ccc34)ccnc2c1 [Compound 10, N^1, N^8 -Bis(7-chloroquinolin-4-yl)octane-1,8diamine] | 5.6 | 3.1 | 0.6 | -0.2 | 1.0 | – | IC50 (P. falciparum): < 6 nM |
| Clc1ccc2c(NCCCCCCCCCNc3ccnc4cc(Cl)ccc34)ccnc2c1 [Compound 11, N^1, N^9 -Bis(7-chloroquinolin-4-yl)nonane-1,9-diamine] | 3.0 | 2.3 | 0.8 | 3.1 | 7.4 | – | IC50 (P. falciparum): < 6 nM; P. berghei activity class (A = active, C = curative, with number of mice) ([3]; 640 mg/kg s.c., single dose, n = 5): A (active (A) when the mean survival time of the treated mice is twice that of the controls (>6.2 days)) |
| Clc1ccc2c(NCCCCCCCCCCNc3ccnc4cc(Cl)ccc34)ccnc2c1 [Compound 12, N^1, N^10 -Bis(7-chloroquinolin-4-yl)decane-l,10-diamine] | 5.7 | 3.4 | 0.6 | 0.2 | 0.2 | – | P. berghei T-C ([3]; 640 mg/kg s.c., n = 5): 0.6 days |
| Clc1ccc2c(NCCCCCCCCCCCCNc3ccnc4cc(Cl)ccc34)ccnc2c1 [Compound 13, N^1 N^12 -Bis(7-chloroquinolin-4-yl)dodecane-1,12-diamine] | 59.7 | 30.8 | 0.5 | 0.0 | -0.2 | – | in vitro activity against P. falciparum (in words) (P. falciparum): approximately an order of magnitude less potent in vitro; also recorded: inactive in both screens; in vivo activity against P. berghei (in words) [3]: without activity in vivo; also recorded: inactive in both screens; P. berghei T-C ([3]; 640 mg/kg s.c., n = 5): 0.0 days |
| Clc1ccc2c(N3CCN(CCCN4CCN(c5ccnc6cc(Cl)ccc56)CC4)CC3)ccnc2c1 [PQ, piperaquine] | 8.3 | 16.1 | 1.9 | – | – | active against malaria; also recorded: very effective against CQ-resistant malaria in China | duration of action (CQ-resistant malaria): longer duration of action; toxicity (CQ-resistant malaria): less toxicity when compared to CQ |
| CCN(CC)Cc1cc(Nc2ccnc3cc(Cl)ccc23)ccc1O [amodiaquine] | – | – | – | – | – | active to various extents against CQ-resistant malaria | – |
| OC(CN1CCN(c2ccnc3cc(Cl)ccc23)CC1)CN1CCN(c2ccnc3cc(Cl)ccc23)CC1 [hydroxypiperaquine] | – | – | – | – | – | active against malaria; also recorded: very effective against CQ-resistant malaria in China | duration of action (CQ-resistant malaria): longer duration of action; toxicity (CQ-resistant malaria): less toxicity when compared to CQ |
| OC(c1cc(C(F)(F)F)nc2c(C(F)(F)F)cccc12)C1CCCCN1 (stereo not shown) [mefloquine] | – | – | – | – | – | active to various extents against CQ-resistant malaria | – |
| C=C[C@H]1C[N@@]2CC[C@H]1C[C@H]2[C@H](O)c1ccnc2ccc(OC)cc12 [quinine] | – | – | – | – | – | active to various extents against CQ-resistant malaria | – |
| CCN(CC)Cc1cc(Nc2ccnc3cc(Cl)ccc23)ccc1OC(=O)CCC(=O)Oc1ccc(Nc2ccnc3cc(Cl)ccc23)cc1CN(CC)CC [succinic acid diester of amodiaquine] | – | – | – | – | – | inactive against malaria | – |

Source: patent US5510356A, “Bisquinolines and processes for their production and use to treat malaria” (priority 1991, dated 1996)
